# Results: US20240025903A1, “Bicyclic Compounds and Uses Thereof for the Treatment of Diseases” (Athira Pharma, Inc., priority 2020, published 2024)
# Read-outs that look alike come from different tables or passages of the source.
# Experiments:
# HGF/MET system = target: T1, HGF/MET system (Homo sapiens, UniProt P08581+P14210); assay: Phospho-MET ELISA; assay type: cell-based; settings: HEK293 cells, 1 ng/mL recombinant HGF, 15 minutes, pMET ELISA
# T1 construct: HEK293 cells were prepared by passage into 6-well multi-plates; endogenous in cells; host or cells: HEK293
# T1 sequence (P08581 308-1390 limits assumed): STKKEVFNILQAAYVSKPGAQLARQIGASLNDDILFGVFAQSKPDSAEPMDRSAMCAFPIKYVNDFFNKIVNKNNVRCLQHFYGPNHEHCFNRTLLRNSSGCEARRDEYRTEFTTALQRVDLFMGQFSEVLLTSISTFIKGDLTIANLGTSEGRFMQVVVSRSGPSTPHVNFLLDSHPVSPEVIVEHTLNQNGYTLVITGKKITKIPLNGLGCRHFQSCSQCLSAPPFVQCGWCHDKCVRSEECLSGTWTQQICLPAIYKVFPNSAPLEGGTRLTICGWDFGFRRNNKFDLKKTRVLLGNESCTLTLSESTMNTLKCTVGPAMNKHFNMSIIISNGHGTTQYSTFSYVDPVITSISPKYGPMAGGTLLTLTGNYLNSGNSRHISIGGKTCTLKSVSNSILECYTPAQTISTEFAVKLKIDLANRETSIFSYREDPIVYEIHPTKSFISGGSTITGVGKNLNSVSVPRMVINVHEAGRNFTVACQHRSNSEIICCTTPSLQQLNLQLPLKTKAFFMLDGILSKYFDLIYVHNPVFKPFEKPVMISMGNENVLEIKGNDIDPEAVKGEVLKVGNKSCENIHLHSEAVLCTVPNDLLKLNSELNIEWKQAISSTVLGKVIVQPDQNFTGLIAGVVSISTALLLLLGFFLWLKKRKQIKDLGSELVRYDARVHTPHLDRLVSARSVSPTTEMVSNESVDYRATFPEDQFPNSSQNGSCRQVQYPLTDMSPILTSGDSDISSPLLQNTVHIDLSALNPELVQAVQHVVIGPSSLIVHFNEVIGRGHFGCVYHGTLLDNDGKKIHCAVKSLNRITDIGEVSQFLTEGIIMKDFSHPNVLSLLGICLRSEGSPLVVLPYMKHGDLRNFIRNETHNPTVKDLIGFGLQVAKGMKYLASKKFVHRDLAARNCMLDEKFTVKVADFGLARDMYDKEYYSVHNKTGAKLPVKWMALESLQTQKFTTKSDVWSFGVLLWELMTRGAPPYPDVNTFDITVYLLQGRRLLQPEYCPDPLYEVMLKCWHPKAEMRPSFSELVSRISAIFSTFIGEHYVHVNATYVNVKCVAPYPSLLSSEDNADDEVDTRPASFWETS
# T1 sequence (P14210 32-494 limits assumed): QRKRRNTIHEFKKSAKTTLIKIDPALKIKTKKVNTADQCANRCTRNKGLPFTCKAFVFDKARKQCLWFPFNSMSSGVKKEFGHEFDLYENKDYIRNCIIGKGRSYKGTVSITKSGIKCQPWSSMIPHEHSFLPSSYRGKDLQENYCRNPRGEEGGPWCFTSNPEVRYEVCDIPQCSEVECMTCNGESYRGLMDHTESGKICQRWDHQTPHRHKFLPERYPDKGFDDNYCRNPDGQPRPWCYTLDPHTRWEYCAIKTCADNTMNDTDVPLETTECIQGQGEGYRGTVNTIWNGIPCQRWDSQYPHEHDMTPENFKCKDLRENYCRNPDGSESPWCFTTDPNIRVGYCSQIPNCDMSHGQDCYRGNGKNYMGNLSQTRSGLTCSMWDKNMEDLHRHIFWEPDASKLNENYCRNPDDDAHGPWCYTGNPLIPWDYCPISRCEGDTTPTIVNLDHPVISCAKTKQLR
# Description: Compounds were screened for potency towards the HGF/MET system using phospho-MET (pMET) ELISA kits (Cell Signaling). pMET levels were detected in samples having low (1 ng/mL) and high (10 ng/mL) concentrations of HGF.
# HEK293 cells were prepared by passage into 6-well multi-plates and grown at 37° C. at 5% CO2 in DMEM+10% FBS until approximately 90% confluent. Cells were then starved for at least 8 hours in serum-free growth media.
# Exemplary compounds were prepared in DMEM+0.1% FBS, diluted and added to treatment media with 1 ng/mL recombinant HGF protein (R&D Systems). Cells were incubated in triplicate at 37° C. and 5% CO2 for 15 minutes. Samples were then treated with 180 μL ice-cold RIPA (radioimmunoprecipitation assay) buffer and cells were lysed on ice for 15 minutes. Lysates were cleared by centrifugation at 16,000-g for 15 minutes and the supernatant was retained. Samples were normalized using a BCA assay of lysates to determine protein concentrations across the samples.
# Between 50 and 100 μg total protein lysate was loaded into ELISA wells in pMET Sandwich ELISA kit (Cell Signaling Catalog #7227C), ensuring equal protein load in each well. The ELISA was processed according to manufacturer's instructions. After color developed, absorbance was read on an optical plate reader at 450 nm.
# Potency measurements were determined using peak efficacy by scaling test compound dose treatments along a scale of 1-10 between 1 ng/mL and 10 ng/mL HGF doses according to the following formula: […]
# where y is the normalized data-point, x is the raw data point, A is the mean HGF at 1 ng/mL, and B is the mean HGF at 10 ng/mL.
# In vivo pharmacokinetics = assay: In vivo pharmacokinetics; set-up: species or system Sprague-Dawley rats; settings: both sexes, Sprague-Dawley, rat; for Tmax: plasma; for AUC: dose-corrected plasma AUC; for Cmax: dose-corrected plasma Cmax
# Description: Administration of exemplary compounds by selected routes followed by blood collection and compound quantification in plasma was used to determine the pharmacokinetic (PK) profile of the compounds. Compounds were administered to mixed-sex Sprague-Dawley rats of at least 250 grams by dissolving the test compound in DMSO and then diluting the compound into an appropriate vehicle, either saline or saline and poly-ethylene glycol. Dosing was accomplished by either tail vein puncture (IV) or oral gavage (PO), and animals were administered compound according to their weight at 1 mL/kg. At selected intervals following administration (10, 20, 40, 60, 120, and 360 minutes), blood was collected by tail vein blood draw. Whole blood was then processed by centrifugation to produce plasma. Compound content in plasma samples was quantified by LC-MS/MS and compared to an internal standard and standard curves to determine concentration accurately. Plasma concentrations were then averaged for each time point and plotted as a function of time. Area under the curve was calculated by integration of the curve, Cmax was the highest concentration achieved in plasma, and Tmax was determined by the timing of Cmax.
# [1] = Oral availability calculation; assay type: in vivo, Sprague-Dawley rats; settings: both sexes, Sprague-Dawley, plasma; rat, dose corrected AUC PO / dose corrected AUC IV x 100
# Description: Oral bioavailability is critical to developing small molecule therapeutics for oral administration. Calculations of oral bioavailability (% F) are accomplished by comparing in vivo pharmacokinetic data (Example B7) using IV dosing as the maximum possible exposure and determining the exposure rate after PO administration. In these studies, dose corrected AUC from PO administration was divided by dose corrected AUC from IV administration and multiplied by 100 to yield the % F. Results are shown in Table 9.
# [2] = In vivo tissue distribution; set-up: species or system Sprague-dawley rats; settings: rat
# Description: The rate of distribution to target tissues is an important feature of therapeutic molecules. Tissue distribution of exemplary compounds was performed in mixed-sex Sprague-dawley rats. Test compounds were delivered via tail vein injection (IV) and tissues were collected at Tmax (10 minutes post administration). Animals were deeply anesthetized with isoflurane and whole blood was collected from the right atrium and processed by centrifugation to produce plasma. Animals were then fully perfused with PBS administered to the left ventricle to prevent blood contamination of tissues.
# Tissues were collected and homogenized, and compound content in the target tissue was quantified by LC-MS/MS. Tissue distribution rates were determined by dividing the tissue concentration of compound by the plasma concentration and multiplying by 100.
# HepG2 cells = assay: Cytotoxicity assay (LDH release); assay type: cell-based; settings: 48 hours, 0.1 to 100 μM
# Description: This experiment was designed to obtain a preliminary assessment of cytotoxicity.
# HepG2 cells were plated in 96-well cell culture plates and allowed to attach overnight at 37° C., 5% CO2 in EMEM+10% FBS. Treatments were made in complete media (EMEM+10% FBS) and included a dilution series of test compounds from 0.1 to 100 μM. Known cytotoxin cerivastatin was used as a positive assay control and prepared at a final concentration of 0.5 μM.
# Growth media was replaced with treatment media (EMEM+10% FBS containing test compound dissolved in DMSO) and cells were incubated with test compounds for 48 hours. At the end of the incubation period, supernatant media from each well was transferred to a new plate and LDH assay working solution was added. LDH assay solution undergoes a colorimetric reaction in proportion to the amount of lactate dehydrogenase (an intracellular protein that was only found in the media in the presence of lysed cells) in the media. Color reaction was quantified by measurement of absorbance at a wavelength of 490 nm.
# The signal range of the assay was determined by no manipulation in a negative control treatment and full lysis of all cells in a lysis control sample. Compounds that increase the level of cytotoxicity more than 20% above negative control samples were considered cytotoxic in this assay.
# [3] = IV (tail vein), read-out: TMAX IV
# [4] = PO (oral gavage), read-out: TMAX PO
# [5] = IV (tail vein), read-out: AUC IV
# [6] = IV (tail vein), read-out: CMAX IV
# [7] = PO (oral gavage), read-out: AUC PO
# [8] = PO (oral gavage), read-out: CMAX PO
Structure (SMILES),Potency (augmentation of MET phosphorylation) (HGF/MET system),Tmax (In vivo pharmacokinetics; [3]) [min],Tmax (In vivo pharmacokinetics; [4]) [min],AUC (In vivo pharmacokinetics; [5]) [ng·h/mL],Cmax (In vivo pharmacokinetics; [6]) [ng/mL],AUC (In vivo pharmacokinetics; [7]) [ng·h/mL],Cmax (In vivo pharmacokinetics; [8]) [ng/mL],bioavailability [1] [%],Tissue Distribution (% Plasma exposure at 10 min post IV dose) Brain [2],Tissue Distribution (% Plasma exposure at 10 min post IV dose) Cerebellum [2],Tissue Distribution (% Plasma exposure at 10 min post IV dose) Cortex [2],Tissue Distribution (% Plasma exposure at 10 min post IV dose) Hippocampus [2],Tissue Distribution (% Plasma exposure at 10 min post IV dose) Sciatic Nerve [2],Cytotoxicity (HepG2 cells),Tissue Distribution (% Plasma exposure at 10 min post IV dose) Muscle ([2]; muscle)
"CCC(C)CN1CC2N(C(=O)c3ccc(F)cc3)CCC(=O)N2C(C)C1=O (stereo not drawn) [Compound 11, 1-(4-fluorobenzoyl)-6-methyl-8-(2-methylbutyl)hexahydro-4H-pyrazino[1,2-a]pyrimidine-4,7(6H)-dione]",+++ (+++ indicates maximum potency at or above 1 nM),< 30,< 30,1000 to 3000,100 to 999,100 to 999,100 to 999,25 to 50,++ (++ indicates distribution between 5 and 39%),+ (+ indicates distribution between 0.05 and 5%),+ (+ indicates distribution between 0.05 and 5%),+ (+ indicates distribution between 0.05 and 5%),++ (++ indicates distribution between 5 and 39%),++++ (++++ indicates non-toxic at 100 μM),
"CCC(C)CN1CC2N(C(=O)c3ccc(C(F)(F)F)c(Cl)c3)CCC(=O)N2C(C)C1=O (stereo not drawn) [Compound 12, 1-(3-chloro-4-(trifluoromethyl)benzoyl)-6-methyl-8-(2-methylbutyl)hexahydro-4H-pyrazino[1,2-a]pyrimidine-4,7(6H)-dione]",++ (++ indicates maximum potency at or above 10 nM),< 30,> 60,100 to 999,100 to 999,100 to 999,1 to 100,25 to 50,++ (++ indicates distribution between 5 and 39%),++ (++ indicates distribution between 5 and 39%),++ (++ indicates distribution between 5 and 39%),++ (++ indicates distribution between 5 and 39%),+++ (+++ indicates distribution between 40 and 69%),++++ (++++ indicates non-toxic at 100 μM),
CC1C(=O)N(CC2CCC2)CC2N(C(=O)c3ccc(OC(F)F)cc3)CCC(=O)N12 (stereo not drawn) [Compound 14],,< 30,> 60,1000 to 3000,100 to 999,1000 to 3000,100 to 999,> 50,++ (++ indicates distribution between 5 and 39%),++ (++ indicates distribution between 5 and 39%),++ (++ indicates distribution between 5 and 39%),++ (++ indicates distribution between 5 and 39%),++ (++ indicates distribution between 5 and 39%),++++ (++++ indicates non-toxic at 100 μM),
CCC(C)CN1CC2N(C(=O)c3ccc(C(F)(F)F)cc3)CCC(=O)N2[C@@H](C)C1=O (stereo partly drawn) [Compound 1a],++++ (++++ indicates maximum potency at or above 0.1 nM),< 30,30 to 60,100 to 999,1000 to 3000,100 to 999,1 to 100,25 to 50,++ (++ indicates distribution between 5 and 39%),++ (++ indicates distribution between 5 and 39%),++ (++ indicates distribution between 5 and 39%),++ (++ indicates distribution between 5 and 39%),,++++ (++++ indicates non-toxic at 100 μM),
CCC(C)CN1CC2N(Cc3ccc(O)nc3)CCC(=O)N2[C@@H](C)C1=O (stereo partly drawn) [Compound 7a],++ (++ indicates maximum potency at or above 10 nM),< 30,30 to 60,> 3000,> 3000,1 to 100,1 to 100,< 1,+ (+ indicates distribution between 0.05 and 5%),+ (+ indicates distribution between 0.05 and 5%),+ (+ indicates distribution between 0.05 and 5%),+ (+ indicates distribution between 0.05 and 5%),++++ (++++ indicates distribution above 70%),++++ (++++ indicates non-toxic at 100 μM),++ (++ indicates distribution between 5 and 39%)
CCCCN1CC2N(C(=O)c3ccc(OC(F)F)cc3)CCC(=O)N2C(C)C1=O (stereo not drawn) [Compound 17],+++ (+++ indicates maximum potency at or above 1 nM),,,,,,,,,,,,,++++ (++++ indicates non-toxic at 100 μM),
CCC(C)CN1CC2N(C(=O)c3ccc(O)cc3)CCC(=O)N2[C@@H](C)C1=O (stereo partly drawn) [Compound 8a],+ (+ indicates maximum potency at or above 100 nM),,,,,,,,,,,,,++++ (++++ indicates non-toxic at 100 μM),
CC1C(=O)N(CCC2CCCC2)CC2N(C(=O)c3ccc(C(F)(F)F)cc3)CCC(=O)N12 (stereo not drawn) [Compound 19],+++ (+++ indicates maximum potency at or above 1 nM),,,,,,,,,,,,,++++ (++++ indicates non-toxic at 100 μM),
